The target of one experiment is T1, M1 receptor (Homo sapiens, UniProt P11229).
T1 construct: expressed in transfected cells; host or cells: CHO-K1
T1 sequence (P11229 1-460): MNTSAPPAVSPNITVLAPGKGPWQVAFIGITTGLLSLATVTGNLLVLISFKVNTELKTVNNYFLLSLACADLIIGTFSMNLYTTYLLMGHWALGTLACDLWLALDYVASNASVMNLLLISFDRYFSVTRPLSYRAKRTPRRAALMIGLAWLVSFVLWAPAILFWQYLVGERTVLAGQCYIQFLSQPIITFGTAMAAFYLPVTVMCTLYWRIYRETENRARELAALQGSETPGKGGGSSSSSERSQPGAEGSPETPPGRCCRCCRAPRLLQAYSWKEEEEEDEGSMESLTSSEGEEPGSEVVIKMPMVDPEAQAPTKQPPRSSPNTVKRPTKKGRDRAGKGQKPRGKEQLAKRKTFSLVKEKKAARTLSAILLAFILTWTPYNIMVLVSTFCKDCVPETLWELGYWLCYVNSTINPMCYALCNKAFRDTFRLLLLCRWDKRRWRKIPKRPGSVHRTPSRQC
The experiment in a line: DMR assay, antagonism of acetylcholine in CHO-K1 cells stably transfecting the M1 receptor. It counts as cell-based. The following applies: for IC50: CHO-K1-M1 cells, DMR, acetylcholine 1 μM, 1 h pretreatment, time point 5 min; for antagonistic activity against the M1 receptor, in words: structure-activity comparison with parent compound. Here is the method: (§1) The present invention relates to the antagonistic activity of the compound against the muscarinic receptor, which is primarily assessed by a cell-level dynamic mass redistribution (DMR) assay method. All tests are carried out on Epic platform, wherein the target model of the muscarinic receptor M1 is the CHO-K1 ceil model stably transfecting the M1 receptor, the target model of M3 is the HT-29 cell model endogenously highly expressing the M3 receptor, and the selected probe molecule is acetylcholine. Tire probe molecule acetylcholine is dissolved in water, while all other compounds are dissolved in DMSO.
The inoculated cell plate is placed in a cell incubator for culture for 12 h until the cell growth and fusion degree reaches about 95%, and the activity assay is carried out. The culture medium is sucked from the cultured ceils, the buffer salt specified by the test is added with a volume of 30 μL per orifice and is stabilized for 1 h. After the baseline is stable, a 2-min baseline is established, and different concentrations of compounds to be tested are added to test the cultured cells for 1 h. After the cells are pretreated with the compounds to be tested for 1 h, the 2-min baseline is re-established, and acetylcholine having a concentration of 1 μM is added to test the cultured cells for 1 h.

The next experiment relates to guinea pigs. The experiment in a line: Acetylcholine chloride/histamine spray-induced asthma, incubation period. The conditions noted are these: for asthma incubation period: 0.2 mM in normal saline sprayed 10 min, challenge after 10 min, recorded as 240 s if no convulsion and fall; for efficacy in asthma model, in words: 0.2 mM spray. It counts as in vivo, guinea pig. Here is the method: On the first day, guinea pigs are placed in a 38×38×38 cm (about 55 L) of home-made container with an atomizing nozzle having a diameter of about 3 cm above the side wall. Ultrasonic atomizer (YUWELL, model 402AI) is used to spray normal saline containing acetylcholine chloride (20 g/L) and histamine (1 g/L) for 15 s. The incubation period of asthma of guinea pigs (also is called asthma incubation period, which is the time from the end of the spray to asthma attack, extreme breathing difficulty until convulsion and fall) is recorded after the cessation of spraying. Animals with an incubation period of less than 120 s are qualified sensitive animals.
2. Experimental Processes
On the second day, the qualified animals are selected for experiments, wherein one group (comprising 4 guinea pigs) is used as the control group, one group (comprising 4 guinea pigs) is experimented with positive medicine […] and one group (comprising 10 guinea pigs) is experimented with the drug to be tested. The animals are placed in a container, and sprayed with normal saline, tiotropium bromide and the compound to be tested. Both tiotropium bromide and the compound to be tested are soluble in normal saline at a concentration of 0.2 mM. After spraying for 10 min, the guinea pigs are taken out and put into another container of the same size. After 10 min, normal saline containing acetylcholine chloride (20 g/L) and histamine (1 g/L) is sprayed into the container for 15 s. The incubation periods of asthma of the guinea pigs are observed and recorded. If there is no convulsion and fall after 240 s, the incubation period is recorded as 240 s.

In a further experiment the target is T2, M3 receptor (Homo sapiens, UniProt P20309).
T2 construct: HT-29 cell model endogenously highly expressing the M3 receptor; endogenous in cells; host or cells: HT-29
Kind of experiment: DMR assay, antagonism of acetylcholine in HT-29 cells endogenously expressing the M3 receptor. The class given is cell-based. The conditions noted are these: for IC50: HT-29 cells, DMR, acetylcholine 16 μM, 1 h pretreatment, time point 30 min; for antagonistic activity against the M3 receptor, in words: structure-activity comparison with parent compound. Here is the method:
as §1
The inoculated cell plate is placed in a cell incubator for culture for 20 h until the cell growth and fusion degree reaches about 95%, and the activity assay is carried out. The culture medium is sucked from the cultured cells, the buffer salt specified by the test is added with a volume of 30 μL per orifice and is stabilized for 1 h. After the baseline is stable, a 2-min baseline is established, and different concentrations of compounds to be tested are added to test the cultured cells for 1 h.

Structures are written as SMILES. Where a name gives a salt, the structure may show the parent alone. Bounds are passed on as bounds.

T2 sequence (P20309 whole entry): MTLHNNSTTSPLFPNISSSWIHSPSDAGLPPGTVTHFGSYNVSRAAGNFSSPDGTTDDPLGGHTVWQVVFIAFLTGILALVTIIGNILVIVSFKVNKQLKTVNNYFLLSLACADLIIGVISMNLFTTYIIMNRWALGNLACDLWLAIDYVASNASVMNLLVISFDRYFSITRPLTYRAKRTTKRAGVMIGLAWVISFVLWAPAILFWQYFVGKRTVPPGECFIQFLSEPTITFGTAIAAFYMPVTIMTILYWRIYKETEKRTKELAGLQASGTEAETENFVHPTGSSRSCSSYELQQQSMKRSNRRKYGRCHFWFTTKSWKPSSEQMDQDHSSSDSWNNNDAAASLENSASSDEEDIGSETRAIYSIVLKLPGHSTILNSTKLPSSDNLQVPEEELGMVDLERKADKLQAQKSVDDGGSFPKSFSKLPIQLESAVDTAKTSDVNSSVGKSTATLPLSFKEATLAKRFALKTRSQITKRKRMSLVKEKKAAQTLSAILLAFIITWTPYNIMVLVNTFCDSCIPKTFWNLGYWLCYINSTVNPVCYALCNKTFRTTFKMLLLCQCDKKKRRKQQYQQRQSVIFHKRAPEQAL

A word on the IC50: it is the concentration at which inhibition is half-maximal. On to `C[N+]1(C)CCCCC1CC(c1ccccc1)c1ccccc1O.[Br-]` (stereo not drawn) [I-2a-1-Br, 2-[2-(2-hydroxy-phenyl)-phenethyl]-N,N-dimethylpiperidine Bromide], for which the IC50 at M1 receptor came out at 8.8 ± 2.6 nM. In the experiment on guinea pigs, the asthma incubation period turned out to be 228.9 ± 4.7 s and the “efficacy in asthma model, in words” value is reported as “good efficacy”. For the same compound, the IC50 at M3 receptor was 5.7 ± 1.1 nM.
Turning to `COc1ccc(O)c(C(CC2CCCCN2C)c2ccccc2)c1` (stereo not drawn) [II-9, 2-[2-(2-hydroxy-5-methoxy-phenyl)-phenethyl]-N-methylpiperidine], the 50% inhibitory concentration (IC50) amounted to 73.2 ± 12.5 nM at M1 receptor and 320 ± 41.4 nM on M3 receptor.
Turning to `Cc1ccc(O)c(C(CC2CCCC[N+]2(C)C)c2ccccc2)c1` (stereo not drawn) [I-4B-2-Br, 2-[2-(2-hydroxy-5-methyl-phenyl)-phenethyl]-N,N-dimethylpiperidine Bromide], the IC50 stood at 157 ± 61.6 nM at M1 receptor and 217 ± 37.9 nM at M3 receptor.
Turning to `CC(=O)Oc1ccc(C)cc1C(CC1CCCCN1C)c1ccccc1` (stereo not drawn) [II-24, 2-[2-(2-acetategroup-5-methyl-phenyl)-phenethyl]-N-methylpiperidine], at M1 receptor, the IC50 turned out to be 3340 ± 210 nM and the “antagonistic activity against the M1 receptor, in words” value is given as “the activity is greatly decreased”. In addition, at M3 receptor, the IC50 is 1210 ± 120 nM and the “antagonistic activity against the M3 receptor, in words” value is on record as “the activity is greatly decreased”.
Consider `Cc1ccc(O)c(C(CC2CCCN2C)c2ccccc2)c1` (stereo not drawn) [II-19], for which the values for the 50% inhibitory concentration (IC50) on M1 receptor and at M3 receptor were 74.5 ± 6 nM and 137 ± 22.9 nM, respectively.
Turning to `CN1CCCCC1CC(c1ccccc1)c1cc(F)ccc1O` (single isomer, unassigned) [II-10b, 2-[2-(2-hydroxy-5-fluorophenyl)-phenethyl]-N-methylpiperidine], the half-inhibitory concentration (IC50) was 83.2 ± 22.8 nM at M1 receptor and 109 ± 39.4 nM on M3 receptor.
Taken in the same sequence, the figures for `C[N+]1(C)CCCCC1CC(c1ccccc1)c1ccc(F)cc1O` (stereo not drawn) [I-8, 2-[2-(2-hydroxy-4-fluorophenyl)-phenethyl]-N,N-dimethylpiperidine bromide] were 113 ± 41.2 nM and 97.2 ± 21.1 nM.
For `CCc1ccc(O)c(C(CC2CCCC[N+]2(C)C)c2ccccc2)c1` (stereo not drawn) [I-5-Br, 2-[2-(2-hydroxy-5-ethyl-phenyl)-phenethyl]-N,N-dimethylpiperidine Bromide] the same measures were 45.6 ± 7.8 nM and 10.5 ± 1.1 nM.
Regarding `Cc1ccc(O)c(C(CC2CCCC[N+]2(C)C)c2ccc(Cl)cc2)c1` (stereo not drawn) [I-14, 2-[2-(4-chlorophenyl)-2-(2-hydroxy-5-methylphenyl)-ethyl]-N,N-dimethylpiperidine Bromide], the IC50 was 79.2 ± 36.9 nM at M1 receptor and 87.2 ± 36.5 nM on M3 receptor.
`C[N+]1(C)CCCCC1CC(c1ccccc1)c1ccccc1O` (stereo not drawn) [I-2a-I, 2-[2-(2-hydroxy-phenyl)-phenethyl]N,N-dimethylpiperidine Iodide]: the IC50 is 16.5 ± 1.8 nM at M1 receptor and 25.6 ± 1.9 nM at M3 receptor.
`CN1CCCCC1CC(c1ccccc1O)c1ccccc1O` (single isomer, unassigned) [II-3-1, 2-[2,2-bis(2-hydroxy-phenyl)-ethyl]-N-methylpiperidine]: the IC50 on M1 receptor amounted to 30.4 ± 12.6 nM; on M3 receptor it was 15.4 ± 2.9 nM.
Turning to `Cc1ccc(C(CC2CCCCN2C)c2cc(C)ccc2O)cc1` (stereo not drawn) [II-15, 2-[2-(4-tolyl)-2-(2-hydroxy-5-methyl-phenyl)-ethyl]-N-methylpiperidine], the concentration for half-maximal inhibition (IC50) at M1 receptor was 65.1 ± 11.7 nM; on M3 receptor, 112 ± 20 nM.
As to `Cc1ccc(O)c(C(CC2CCC[N+]2(C)C)c2ccccc2)c1` (stereo not drawn) [I-19, 2-[2-(2-hydroxy-5-methyl-phenyl)-phenethyl]-N,N-dimethylpyrrolidine Bromide], the IC50 at M1 receptor was 41 ± 9.2 nM; at M3 receptor, 29.9 ± 4.7 nM.
Taken in the same sequence, the figures for `Cc1ccc(OC(=O)c2ccccc2)c(C(CC2CCCC[N+]2(C)C)c2ccccc2)c1` (stereo not drawn) [I-25, 2-[2-(2-benzoate Group-5-methyl-phenyl)-phenethyl]-N,N-dimethylpiperidine Bromide] were 997 ± 60 nM and 2310 ± 600 nM.
`Cc1ccc(OC(=O)C(C)C)c(C(CC2CCCCN2C)c2ccccc2)c1` (stereo not drawn) [II-23, 2-[2-(2-isobutyryl estergroup-5-methyl-phenyl)-phenethyl]-N-methylpiperidine]: on M1 receptor, the 50% inhibitory concentration (IC50) was 1900 ± 500 nM and the “antagonistic activity against the M1 receptor, in words” value is “the activity is greatly decreased”. For the same compound, at M3 receptor, the IC50 worked out at 690 ± 160 nM and the “antagonistic activity against the M3 receptor, in words” value is given as “the activity is greatly decreased”.
Regarding `Cc1ccc(S(=O)(=O)Oc2ccc(C)cc2C(CC2CCCCN2C)c2ccccc2)cc1` (stereo not drawn) [II-26, 2-[2-(2-methylp-toluenesulfonategroup-5-methyl-phenyl)-phenethyl]-N-methylpiperidine], on M1 receptor, the “antagonistic activity against the M1 receptor, in words” value is on record as “the activity is greatly decreased”. Moreover, at M3 receptor, the 50% inhibitory concentration (IC50) came out at 2620 ± 425 nM and the “antagonistic activity against the M3 receptor, in words” value is “the activity is greatly decreased”.
Take `CN1CCCCC1CC(c1ccccc1O)c1ccccc1O` (stereo not drawn) [I-3-Cl, 2-[2,2-bis(2-hydroxyphenyl)-ethyl]-N-methylpiperidine Hydrochloride]: the IC50 on M1 receptor amounted to 402 ± 185 nM; at M3 receptor it was 66.2 ± 51.8 nM.
With `C[N+]1(C)CCCCC1CC(c1ccccc1)c1cc(F)ccc1O.[Br-]` (stereo not drawn) [I-10a-1, 2-[2-(2-hydroxy-5-fluorophenyl)-phenylethyl]-N,N-dimethylpiperidine bromide], in the experiment with guinea pigs, the asthma incubation period was 240 s and the “efficacy in asthma model, in words” value is “good efficacy”. Further, the IC50 at M3 receptor was determined as 37 ± 4.3 nM.
For `Cc1ccc(C(CC2CCCC[N+]2(C)C)c2cc(C)ccc2O)cc1` (stereo not drawn) [I-15, 2-[2-(4-tolyl)-2-(2-hydroxy-5-methyl-phenyl)-ethyl]-N,N-dimethylpiperidine Bromide], the values for the IC50 on M1 receptor and on M3 receptor were 48.3 ± 11 nM and 78 ± 31 nM, respectively.
Regarding `Cc1ccc(O)c(C(CC2CCCC[N+]2(C)C)c2ccsc2)c1` (stereo not drawn) [I-22, 2-[2-(3-thienyl)-2-(2-hydroxy-5-methyl-phenyl)-ethyl]-N,N-dimethylpiperidine Bromide], the IC50 was 25.7 ± 0.8 nM on M1 receptor and 10.7 ± 1.6 nM at M3 receptor.
As for `CN1CCCCC1CC(c1ccccc1)c1ccccc1` (stereo not drawn) [II-1, 2-(2,2-Diphenylethyl)-N-Methylpiperidine], the half-maximal inhibitory concentration (IC50) at M1 receptor was 3130 ± 240 nM; on M3 receptor, more than 10000 nM.
As for `Cc1ccc(O)c(C(CC2CCCC[N+]2(C)C)c2ccccc2)c1` (stereo not drawn) [I-4a-2-Br, 2-[2-(2-hydroxy-5-methyl-phenyl)-phenethyl]-N,N-dimethylpiperidine Bromide], the values for the half-inhibitory concentration (IC50) on M1 receptor and at M3 receptor were 832 ± 132 nM and 1210 ± 120 nM, respectively.
For `Cc1ccc(O)c(C(CC2CCCC[N+]2(C)CCCOc2ccccc2)c2ccccc2)c1.[Br-]` (racemic) [I-4a-PrOPh, 2-[2-(2-hydroxy-5-methyl-phenyl)-phenethyl]-N-methyl, N-phenoxypropyl Piperidine Bromide], at M1 receptor, the IC50 stood at 295 ± 136 nM. Besides, on M3 receptor, the IC50 is 279 ± 128 nM and the “antagonistic activity against the M3 receptor, in words” value is listed as “a significant decrease in activity”.
As for `Cc1ccc(O)c(C(CC2CCCCN2C)c2ccccc2F)c1` (stereo not drawn) [II-7, 2-[2-(2-fluorophenyl)-2-(2-hydroxy-5-methyl-phenyl)ethyl]-N-methylpiperidine], the IC50 on M1 receptor was determined as 230 ± 10 nM; at M3 receptor it was 210 ± 30 nM.

Source of the values: patent US11274079B2 (DALIAN INSTITUTE OF CHEMICAL PHYSICS, CHINESE ACADEMY OF …, priority 2018, dated 2022).
